Patent US9730944B2, “Antiviral activity of novel bicyclic heterocycles” (priority 2010, dated 2017)

Tests used:
[1] = system: genotype 1a H-77 replicon; experiment: HCV-1a replicon potency in RLuc-1 cells, bioluminescence; assay type: cell-based; conditions: for HCV-1a Replicon Selectivity Index: CC50/EC50, genotype 1a replicon; for EC50: Hepatitis C virus, 72 h, read-out: HCV-1a Replicon EC50 (μM)
[2] = Cytotoxicity in HCV-1a replicon cells, Promega CellTiter-Glo cell viability assay

Row | Structure (SMILES) | HCV-1a Replicon Selectivity Index [1] | EC50 [1] [µM] | CC50 at 72 h [2] [µM]
1 | Nc1nc(N2CCN(C(=O)COc3ccc(Cl)cc3)CC2)c2nc(SCCc3ccccc3)[nH]c2n1 [Example 427, 1-(4-(2-amino-8-(phenethylthio)-9H-purin-6-yl)piperazin-1-yl)-2-(4-chlorophenoxy)ethanone] | 1.1 | 5.2 | 5.8
2 | Nc1nc(N2CCN(C(=O)COc3ccc(Cl)cc3)CC2)c2nc(CCc3ccccc3)sc2n1 [Example 118, 5-amino-7-[4-(4-chlorophenoxyacetyl)piperazin-1-yl]-2-(2-phenylethyl)thiazolo[5,4-d]pyrimidine] | 8.4 | 3.6 | 30.3
3 | Nc1nc(N2CCN(C(=O)COc3ccc(Cl)cc3)CC2)c2nc(-c3ccc(C(F)(F)F)cc3)[nH]c2n1 [Example 394, 1-(4-(2-amino-8-(4-(trifluoromethyl)phenyl)-9H-purin-6-yl)piperazin-1-yl)-2-(4-chlorophenoxy)ethanone] | 1.2 | 9 | 10.6
4 | CC(C)(C)c1nc2c(N3CCN(C(=O)COc4ccc(Cl)cc4)CC3)nc(N)nc2[nH]1 [Example 399, 1-(4-(2-amino-8-tert-butyl-9H-purin-6-yl)piperazin-1-yl)-2-(4-chlorophenoxy)ethanone] | 1.2 | 24.7 | 29.1
5 | Nc1nc(N2CCN(CC(=O)NCCc3ccccc3)CC2)c2nc(CCc3ccc(F)cc3)sc2n1 [Example 141, 5-amino-2-[2-(4-fluorophenyl)ethyl]-7-(4-(phenethylcarbamoyl-methyl)piperazin-1-yl)-thiazolo[5,4-d]pyrimidine] | 1.0 | 15.8 | 16
6 | Nc1nc(N2CCN(C(=O)COc3ccc(Cl)cc3)CC2)c2nc(CCc3cccs3)sc2n1 [Example 154, 5-amino-2-(2-thiophen-2-ylethyl)-7-(4-[2-(4-chloro-phenoxy)acetyl]piperazin-1-yl)thiazolo[5,4-d]pyrimidine] |  | > 44.4 | > 44.4
7 | COc1ccc(-c2nc3c(N4CCN(C(=O)COc5ccc(Cl)cc5)CC4)nc(N)nc3[nH]2)cc1OC [Example 390, 1-(4-(2-amino-8-(3,4-dimethoxyphenyl)-9H-purin-6-yl)piperazin-1-yl)-2-(4-chlorophenoxy)ethanone] | 9.9 | 1.7 | 17.3
8 | Cc1cccc(NC(=O)N2CCCN(c3nc(N)nc4[nH]c(-c5ccc(F)cc5)nc34)CC2)c1 [Example 422, 4-(2-amino-8-(4-fluorophenyl)-9H-purin-6-yl)-N-m-tolyl-1,4-diazepane-1-carboxamide] | 1.3 | 26.1 | 35.1
9 | Cc1cccc(NC(=O)N2CCN(c3nc(N)nc4sc(-c5ccccc5)cc34)CC2)c1 [Example 330, 4-(2-amino-6-phenylthieno[2,3-d]pyrimidin-4-yl)-N-m-tolylpiperazine-1-carboxamide] | 6.0 | 7.2 | 43.5
10 | Nc1nc(N2CCN(C(=O)Nc3ccc(Cl)cc3)CC2)c2cc(-c3ccccc3)sc2n1 [Example 331, 4-(2-amino-6-phenylthieno[2,3-d]pyrimidin-4-yl)-N-(4-chlorophenyl)piperazine-1-carboxamide] | 1.8 | 18.7 | 34.3
11 | Nc1nc(N2CCN(C(=O)COc3ccc(Cl)cc3)CC2)c2nc(-c3ccc(Cl)c(Cl)c3)sc2n1 [Example 116, 5-amino-7-[4-(4-chlorophenoxyacetyl)piperazin-1-yl]-2-(3,4-dichlorophenyl)thiazolo[5,4-d]pyrimidine] | 0.8 | > 44.4 | 37.2
12 | Nc1nc(NC2CCCN(C(=O)OCc3ccccc3)C2)c2nc(CCc3ccc(F)cc3)sc2n1 (stereo not shown) [Example 145, 5-amino-2-[2-(4-fluorophenyl)ethyl]-7-(1-benzyloxycarbonylpiperidin-3-ylamino)-thiazolo[5,4-d]pyrimidine] | 2.1 | 13.1 | 27.6
13 | Nc1nc(N2CCN(C(=O)COc3ccc(Cl)cc3)CC2)c2nc(-c3ccc(OC(F)(F)F)cc3)[nH]c2n1 [Example 395, 1-(4-(2-amino-8-(4-(trifluoromethoxy)phenyl)-9H-purin-6-yl)piperazin-1-yl)-2-(4-chlorophenoxy)ethanone] | 1.1 | 9.9 | 10.7
14 | Nc1nc(N2CCN(CC(=O)Nc3cccnc3)CC2)c2nc(-c3ccc(F)cc3)[nH]c2n1 [Example 412, 2-(4-(2-amino-8-(4-fluorophenyl)-9H-purin-6-yl)piperazin-1-yl)-N-(pyridin-3-yl)acetamide] | >111 | 0.4 | > 44.4
15 | Nc1nc(N[C@H]2CCN(C(=O)COc3ccc(Cl)cc3)C2)c2nc(CCc3ccc(F)cc3)sc2n1 [Example 147, 5-amino-2-[2-(4-fluorophenyl)ethyl]-7-(1-(4-chlorophenoxyacetyl)pyrrolidin-3-(S)-ylamino)-thiazolo[5,4-d]pyrimidine] | 0.5 | 31 | 15.5
16 | Nc1nc(N2CCN(C(=O)Cc3cccs3)CC2)c2nc(-c3ccc(F)cc3)[nH]c2n1 [Example 403, 1-(4-(2-amino-8-(4-fluorophenyl)-9H-purin-6-yl)piperazin-1-yl)-2-(thiophen-2-yl)ethanone] | 0.8 | 11.3 | 9.6
17 | Nc1nc(N2CCN(C(=O)COc3ccc(Cl)cc3)CC2)c2nc(C(c3ccc(F)cc3)C3CCCC3)sc2n1 (stereo not shown) [Example 151, 5-amino-2-[cyclopentyl-(4-fluorophenyl)methyl]-7-(4-[2-(4-chlorophenoxy)acetyl]piperazin-1-yl)thiazolo[5,4-d]pyrimidine] | 2.1 | 14.7 | 31.2
18 | Nc1nc(N2CCCN(C(=O)COc3ccc(Cl)cc3)CC2)c2nc(-c3ccc(F)cc3)[nH]c2n1 [Example 421, 1-(4-(2-amino-8-(4-fluorophenyl)-9H-purin-6-yl)-1,4-diazepan-1-yl)-2-(4-chlorophenoxy)ethanone] | 1.9 | 12.7 | 23.8
19 | CC(c1ccc(Cl)cc1)c1nc2c(N3CCN(C(=O)COc4ccc(Cl)cc4)CC3)nc(N)nc2s1 (stereo not shown) [Example 125, 5-amino-7-[4-(4-chlorophenoxyacetyl)piperazin-1-yl]-2-(1-(4-chlorophenyl)ethyl)thiazolo[5,4-d]pyrimidine] | 1.1 | 22.6 | 24.4
20 | CCCSc1nc2c(N3CCN(C(=O)COc4ccc(Cl)cc4)CC3)nc(N)nc2[nH]1 [Example 425, 1-(4-(2-amino-8-(propylthio)-9H-purin-6-yl)piperazin-1-yl)-2-(4-chlorophenoxy)ethanone] | 19.7 | 1.2 | 23.6
21 | Nc1nc(N2CCN(C(=O)COc3ccccc3)CC2)c2cc(-c3ccccc3)sc2n1 [Example 332, 1-(4-(2-amino-6-phenylthieno[2,3-d]pyrimidin-4-yl)piperazin-1-yl)-2-phenoxyethanone] | 0.9 | > 44.4 | 38.5
22 | Nc1nc(N2CCN(C(=O)COc3ccc(Cl)cc3)CC2)c2nc(-c3ccc(Cl)cc3)[nH]c2n1 [Example 392, 1-(4-(2-amino-8-(4-chlorophenyl)-9H-purin-6-yl)piperazin-1-yl)-2-(4-chlorophenoxy)ethanone] | 4.6 | 2.7 | 12.2
23 | Nc1nc(N2CCN(C(=O)COc3ccccc3)CC2)c2nc(CCc3ccc(F)cc3)sc2n1 [Example 134, 5-amino-2-[2-(4-fluorophenyl)ethyl]-7-(4-[2-phenoxyacetyl]piperazin-1-yl)-thiazolo[5,4-d]pyrimidine] |  | > 44.4 | > 44.4
24 | Cn1c(-c2ccc(F)cc2)nc2c(N3CCN(C(=O)COc4ccc(Cl)cc4)CC3)nc(N)nc21 [Example 430, 1-(4-(2-amino-8-(4-fluorophenyl)-9-methyl-9H-purin-6-yl)piperazin-1-yl)-2-(4-chlorophenoxy)ethanone] | 54.0 | 0.3 | 15.1
25 | Nc1nc(N2CCN(C(=O)COc3ccc(Cl)cc3)CC2)c2nc(C3(c4ccc(Cl)cc4)CC3)sc2n1 [Example 117, 5-amino-7-[4-(4-chlorophenoxyacetyl)piperazin-1-yl]-2-(1-(4-chlorophenyl)cyclopropyl)thiazolo[5,4-d]pyrimidine] | 1.3 | 17.7 | 23.3
26 | Nc1nc(N2CCN(C(=O)COc3ccc(Cl)cc3)CC2)c2nc(-c3cccc(Cl)c3)[nH]c2n1 [Example 393, 1-(4-(2-amino-8-(3-chlorophenyl)-9H-purin-6-yl)piperazin-1-yl)-2-(4-chlorophenoxy)ethanone] | 2.5 | 3.2 | 8.1
27 | Nc1nc(N2CCN(C(=O)COc3ccc(Cl)cc3)CC2)c2nc(Cc3ccc(Cl)cc3)sc2n1 [Example 122, 5-amino-7-[4-(4-chlorophenoxyacetyl)piperazin-1-yl]-2-(4-chlorophenylmethyl)thiazolo[5,4-d]pyrimidine] | 5.8 | 4.7 | 26.8
28 | CN(C(=O)CN1CCN(c2nc(N)nc3[nH]c(-c4ccc(F)cc4)nc23)CC1)c1ccccc1 [Example 413, 2-(4-(2-amino-8-(4-fluorophenyl)-9H-purin-6-yl)piperazin-1-yl)-N-methyl-N-phenylacetamide] | 0.5 | > 44.4 | 20.3
29 | Nc1nc(N2CCN(C(=O)CCc3ccccc3)CC2)c2nc(-c3ccc(F)cc3)[nH]c2n1 [Example 438, 1-(4-(2-amino-8-(4-fluorophenyl)-9H-purin-6-yl)piperazin-1-yl)-3-phenylpropan-1-one] | 0.6 | 10.3 | 6.1
